Data reported in patent US20260285856A1, “A 1,5-DIHYDRO-4H-PYRROLO[3,2-C] PYRIDIN-4-ONE FOR USE IN THE TREATMENT OF CANCER” (ANTARES THERAPEUTICS, INC., priority 2023, published 2026).

Columns and labels:
Assay type in all cases: cell-based
[1] = molecular target: T1, EGFR exon 20 ASV Ins V769_D770 (Homo sapiens, UniProt P00533, INS769ASV); assay: Ba/F3 cell viability (CellTiter-Glo), EGFR exon 20 ASV insertion; details: Ba/F3 cells expressing EGFR exon 20 ASV Ins V769_D770, 72 hours, read-out: BaF3 ASV IC50
T1 construct: expressed in transfected cells; host or cells: Ba/F3 (murine pro-B cells), retroviral transduction, puromycin selection, IL3 withdrawal
T1 sequence (P00533 with tags, fused parts or gaps INS769ASV): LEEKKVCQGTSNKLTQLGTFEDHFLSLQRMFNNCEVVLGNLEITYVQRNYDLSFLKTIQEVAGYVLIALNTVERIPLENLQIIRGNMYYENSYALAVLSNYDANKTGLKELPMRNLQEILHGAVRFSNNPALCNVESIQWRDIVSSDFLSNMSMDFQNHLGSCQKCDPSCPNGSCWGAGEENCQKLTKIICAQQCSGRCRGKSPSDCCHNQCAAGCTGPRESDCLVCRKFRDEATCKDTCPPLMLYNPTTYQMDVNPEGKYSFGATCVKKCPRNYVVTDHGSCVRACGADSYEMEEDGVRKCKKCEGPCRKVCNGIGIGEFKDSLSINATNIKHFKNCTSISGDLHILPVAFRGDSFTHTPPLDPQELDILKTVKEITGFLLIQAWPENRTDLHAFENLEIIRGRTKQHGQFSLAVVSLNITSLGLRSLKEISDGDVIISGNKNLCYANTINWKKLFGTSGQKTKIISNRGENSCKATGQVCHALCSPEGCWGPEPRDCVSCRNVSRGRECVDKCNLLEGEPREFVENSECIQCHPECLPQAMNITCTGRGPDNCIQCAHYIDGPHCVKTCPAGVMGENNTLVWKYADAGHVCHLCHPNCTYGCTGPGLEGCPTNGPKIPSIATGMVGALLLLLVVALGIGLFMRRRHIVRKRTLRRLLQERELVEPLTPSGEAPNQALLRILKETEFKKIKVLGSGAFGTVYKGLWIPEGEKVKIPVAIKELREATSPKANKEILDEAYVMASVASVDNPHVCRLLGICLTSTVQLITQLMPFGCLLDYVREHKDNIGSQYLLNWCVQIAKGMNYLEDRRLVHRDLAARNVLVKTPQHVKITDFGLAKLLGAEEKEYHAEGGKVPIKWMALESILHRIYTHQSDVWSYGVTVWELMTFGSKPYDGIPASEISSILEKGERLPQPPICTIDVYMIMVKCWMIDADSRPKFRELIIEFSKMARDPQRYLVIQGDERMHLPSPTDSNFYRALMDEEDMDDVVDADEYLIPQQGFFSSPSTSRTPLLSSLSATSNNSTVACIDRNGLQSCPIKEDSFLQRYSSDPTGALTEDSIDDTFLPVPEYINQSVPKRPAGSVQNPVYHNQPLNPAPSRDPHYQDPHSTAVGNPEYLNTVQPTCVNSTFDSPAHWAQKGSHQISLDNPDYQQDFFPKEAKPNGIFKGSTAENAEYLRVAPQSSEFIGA
From the text: (§1) Cell lines are generated by transducing Ba/F3 cells with retroviruses containing vectors with EGFR WT, EGFR exon 20 NPG Ins D770_N771, EGFR exon 20 ASV Ins V769_D770, EGFR exon 20 SVD Ins D770_N771, or EGFR exon 20 FQEA Ins A763_V764 genes and a puromycin selection marker. Transduced cells are selected with puromycin for 7 days and are then be transferred into culture media without Interleukin 3 (IL3). EGFR WT cells are maintained with supplemental EGF. Surviving cells are confirmed to express EGFR by Western blot and maintained as a pool. The IC50 data are included in Table 6.
(§2) • 1.1 Cells are harvested from flask into cell culture medium and the cell number counted. • 1.2 Cells are diluted with culture medium to the desired density and 40 NL of cell suspension is added into each well of 384-well cell culture plate and the seeding density is 600 cells/well.
(§3) • 2.1 Test compounds are dissolved to 10 mM in a DMSO stock solution. […]
(§4) • 3.1 Plates are removed from incubators and equilibrated at room temperature for 15 minutes. • 3.2 Thaw the CellTiter Glo reagents and allow to equilibrate to room temperature before the experiment. • 3.3 Add 40 μL of CellTiter-Glo reagent into each well (at 1:1 to culture medium). Then place the plates at room temperature for 30 min followed by reading on EnVision.
(§5) • 4.1 Inhibition activity is calculated following the formula below: […]

[2] = molecular target: T2, EGFR exon 20 SVD Ins D770_N771 (Homo sapiens, UniProt P00533, INS770SVD); assay: Ba/F3 cell viability (CellTiter-Glo), EGFR exon 20 SVD insertion; details: Ba/F3 cells expressing EGFR exon 20 SVD Ins D770_N771, 72 hours, read-out: BaF3 SVD IC50
T2 construct: expressed in transfected cells; host or cells: Ba/F3 (murine pro-B cells), retroviral transduction, puromycin selection, IL3 withdrawal
T2 sequence (P00533 with tags, fused parts or gaps INS770SVD): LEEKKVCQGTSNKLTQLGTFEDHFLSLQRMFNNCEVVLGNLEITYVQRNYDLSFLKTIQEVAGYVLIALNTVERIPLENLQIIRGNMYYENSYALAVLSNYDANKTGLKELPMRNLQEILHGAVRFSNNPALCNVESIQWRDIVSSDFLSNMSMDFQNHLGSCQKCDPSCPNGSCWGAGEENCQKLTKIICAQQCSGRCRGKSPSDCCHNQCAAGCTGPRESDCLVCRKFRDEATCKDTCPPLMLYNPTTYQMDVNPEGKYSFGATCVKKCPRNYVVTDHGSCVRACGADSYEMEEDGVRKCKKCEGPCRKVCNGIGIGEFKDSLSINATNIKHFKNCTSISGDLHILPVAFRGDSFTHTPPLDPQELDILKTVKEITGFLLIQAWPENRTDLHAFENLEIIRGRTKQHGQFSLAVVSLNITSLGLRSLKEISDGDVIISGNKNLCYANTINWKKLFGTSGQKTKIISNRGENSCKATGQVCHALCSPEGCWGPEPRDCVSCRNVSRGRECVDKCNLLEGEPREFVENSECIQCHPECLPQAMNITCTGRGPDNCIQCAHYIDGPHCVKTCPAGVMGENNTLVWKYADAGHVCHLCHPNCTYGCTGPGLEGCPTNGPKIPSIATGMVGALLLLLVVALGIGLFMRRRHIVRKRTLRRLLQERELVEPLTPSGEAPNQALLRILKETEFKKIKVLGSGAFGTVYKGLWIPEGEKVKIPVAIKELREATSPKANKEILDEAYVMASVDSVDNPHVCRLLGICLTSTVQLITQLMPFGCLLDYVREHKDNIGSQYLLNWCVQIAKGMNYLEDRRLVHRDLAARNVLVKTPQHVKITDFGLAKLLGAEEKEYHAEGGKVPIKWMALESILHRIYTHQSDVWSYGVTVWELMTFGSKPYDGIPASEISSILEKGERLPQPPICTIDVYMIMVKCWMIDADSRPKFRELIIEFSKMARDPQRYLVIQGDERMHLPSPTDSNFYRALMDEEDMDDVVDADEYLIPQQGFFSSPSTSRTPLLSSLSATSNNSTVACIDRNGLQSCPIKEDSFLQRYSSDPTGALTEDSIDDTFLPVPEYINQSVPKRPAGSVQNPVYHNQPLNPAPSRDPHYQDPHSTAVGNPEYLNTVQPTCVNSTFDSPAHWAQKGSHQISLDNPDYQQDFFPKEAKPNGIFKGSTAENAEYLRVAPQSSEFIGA
From the text: as §1, §2, §3, §4, §5

[3] = molecular target: T3, EGFR exon 20 NPG Ins D770_N771 (Homo sapiens, UniProt P00533, INS770NPG); assay: Ba/F3 cell viability (CellTiter-Glo), EGFR exon 20 NPG insertion; details: Ba/F3 cells expressing EGFR exon 20 NPG Ins D770_N771, 72 hours, read-out: BaF3 NPG IC50
T3 construct: expressed in transfected cells; host or cells: Ba/F3 (murine pro-B cells), retroviral transduction, puromycin selection, IL3 withdrawal
From the text: as §1, §2, §3, §4, §5

EGFR WT = molecular target: T4, EGFR WT (Homo sapiens, UniProt P00533); assay: Ba/F3 cell viability (CellTiter-Glo), EGFR WT; details: Ba/F3 cells expressing EGFR WT, supplemental EGF, 72 hours, read-out: BaF3 WT IC50
T4 construct: expressed in transfected cells; host or cells: Ba/F3 (murine pro-B cells), retroviral transduction; maintained with supplemental EGF
T4 sequence (P00533 25-1210): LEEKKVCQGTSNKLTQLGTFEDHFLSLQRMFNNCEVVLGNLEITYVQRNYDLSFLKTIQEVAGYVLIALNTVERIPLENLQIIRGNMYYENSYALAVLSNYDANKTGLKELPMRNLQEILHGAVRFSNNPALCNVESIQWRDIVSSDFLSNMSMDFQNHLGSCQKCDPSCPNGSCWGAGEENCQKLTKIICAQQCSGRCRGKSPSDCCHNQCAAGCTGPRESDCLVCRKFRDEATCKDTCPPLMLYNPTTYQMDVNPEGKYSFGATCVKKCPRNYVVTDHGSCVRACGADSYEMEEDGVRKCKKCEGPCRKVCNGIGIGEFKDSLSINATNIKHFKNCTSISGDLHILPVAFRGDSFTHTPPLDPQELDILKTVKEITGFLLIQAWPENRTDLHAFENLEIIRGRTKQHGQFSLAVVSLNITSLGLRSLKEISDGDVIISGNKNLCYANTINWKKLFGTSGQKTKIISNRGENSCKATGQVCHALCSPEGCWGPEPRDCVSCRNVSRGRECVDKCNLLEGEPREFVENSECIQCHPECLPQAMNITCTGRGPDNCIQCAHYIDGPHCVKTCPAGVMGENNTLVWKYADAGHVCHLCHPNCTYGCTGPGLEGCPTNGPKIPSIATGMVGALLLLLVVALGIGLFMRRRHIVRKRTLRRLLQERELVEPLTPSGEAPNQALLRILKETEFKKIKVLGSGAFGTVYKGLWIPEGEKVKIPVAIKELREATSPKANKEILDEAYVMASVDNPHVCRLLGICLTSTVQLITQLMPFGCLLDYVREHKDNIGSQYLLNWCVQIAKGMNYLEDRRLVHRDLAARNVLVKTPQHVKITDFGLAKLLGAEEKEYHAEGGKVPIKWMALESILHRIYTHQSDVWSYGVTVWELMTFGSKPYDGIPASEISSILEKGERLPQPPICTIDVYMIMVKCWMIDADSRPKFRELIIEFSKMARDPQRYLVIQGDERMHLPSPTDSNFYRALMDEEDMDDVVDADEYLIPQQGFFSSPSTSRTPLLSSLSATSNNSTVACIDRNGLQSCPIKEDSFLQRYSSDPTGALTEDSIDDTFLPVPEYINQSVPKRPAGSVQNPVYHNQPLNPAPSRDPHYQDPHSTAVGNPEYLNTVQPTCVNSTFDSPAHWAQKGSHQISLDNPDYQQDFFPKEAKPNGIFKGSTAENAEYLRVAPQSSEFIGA
From the text: as §1, §2, §3, §4, §5

[4] = molecular target: EGFR phosphorylation (pEGFR) in CUTO14 cells (Homo sapiens, UniProt P00533, INS769ASV); assay: EGFR phosphorylation (pEGFR) AlphaLISA in CUTO14 cells; details: 2 hours
Chain of EGFR phosphorylation (pEGFR) in CUTO14 cells (P00533 with tags, fused parts or gaps INS769ASV): as the sequence (P00533 with tags, fused parts or gaps INS769ASV) above
From the text: EGFR mutant Ba/F3 cells were generated by transduction with retrovirus containing vectors expressing EGFR exon 20 NPG Ins D770_N771, EGFR exon 20 ASV Ins V769_D770, or EGFR exon 20 SVD Ins D770_N771 genes along with a puromycin selection marker. Transduced cells are selected with puromycin for 7 days and are then be transferred into culture media without Interleukin 3 (IL3). Surviving cells are confirmed to express EGFR by Western blot and maintained as a pool. CUTO14 cells were obtained from Dr. Robert C. Doebele at the University of Colorado. The IC50 data are included in Table 6.
as §2, with “μL” for “NL”, “50K cells/well (Ba/F3) or 12.5K cells/well (CUTO14).” for “600 cells/well.”
• 2.1 Test compounds are dissolved to 10 mM in a DMSO stock solution. 45 μL of stock solution is transferred to a 384 polypropylene plate (pp-plate). […] Mix well on the shaker, seal and wrap in aluminum foil and incubate 1.5 hrs at room temperature in the dark • 3.5 Transfer 18.5 μL mixture to OptiPlate 384, and read using an Envision.

[5] = tested on: EGFR mutant versus EGFR WT; assay: EGFR mutant potency and selectivity against EGFR WT, compared with the enantiomer; details: relative to its enantiomer (compound 635 in WO 2022/066734)
From the text: as §1

With `COc1c(Cl)cccc1Nc1c(-c2ccncc2C#C[C@@]2(C)CCCN2C(=O)/C=C/CN(C)C)[nH]c2cc[nH]c(=O)c12` [(I), 3-[(3-chloro-2-methoxyphenyl)amino]-2-(3-{2-[(2R)-1-[(2E)-4-(dimethylamino)but-2-enoyl]-2-methylpyrrolidin-2-yl]ethynyl}pyridin-4-yl)-1H,5H-pyrrolo[3,2-c]pyridin-4-one] the IC50 [1] was < 100 nM, the IC50 [2] was < 100 nM and the IC50 [3] was < 100 nM. The IC50 (EGFR WT) was ≥ 1000 nM, the IC50 [4] was < 100 nM and the “EGFR mutant potency and selectivity against EGFR WT” value [5] was “greater than the potency and selectivity exhibited by its enantiomer”.
